Holding throughout (format): biochemical
For assay [1], the target named is T1, Gluconobacter oxydans DSM No. 4025 alcohol/aldehyde dehydrogenase Enzyme B, wild type, SEQ ID NO: 8 (Ketogulonicigenium vulgare, UniProt F9Y8N6).
T1 construct: 579 aa precursor with 23 aa signal peptide
T1 sequence (F9Y8N6 24-579): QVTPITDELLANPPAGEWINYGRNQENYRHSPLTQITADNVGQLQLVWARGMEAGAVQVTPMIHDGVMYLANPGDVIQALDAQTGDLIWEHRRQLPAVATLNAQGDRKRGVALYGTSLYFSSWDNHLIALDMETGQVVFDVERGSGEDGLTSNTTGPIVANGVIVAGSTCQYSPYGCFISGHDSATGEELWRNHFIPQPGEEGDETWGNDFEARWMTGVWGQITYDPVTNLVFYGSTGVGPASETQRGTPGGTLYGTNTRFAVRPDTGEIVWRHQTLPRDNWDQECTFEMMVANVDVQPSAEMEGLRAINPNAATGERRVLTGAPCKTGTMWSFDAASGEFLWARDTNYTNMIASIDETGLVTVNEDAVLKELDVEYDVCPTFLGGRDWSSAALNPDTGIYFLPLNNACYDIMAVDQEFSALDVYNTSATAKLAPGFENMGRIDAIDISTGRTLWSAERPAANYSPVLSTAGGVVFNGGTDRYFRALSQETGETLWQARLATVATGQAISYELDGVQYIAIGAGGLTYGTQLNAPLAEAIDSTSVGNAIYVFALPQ
The assay can be described thus: Kinetic properties of Enzyme B. The text has this: Tables 11 and 12 summarizes the kinetic properties of chimera enzymes, Enzyme sA2 and Enzyme sB in comparison with Enzyme A and Enzyme B, respectively.

Assay [2] has as its system Gluconobacter oxydans DSM No. 4025 AADH chimera Enzyme sB (Enzyme A residues 1-95, Enzyme B residues 96-180, Enzyme A residues 180-556; parents SEQ ID NO: …). The assay can be described thus: Kinetic properties of chimera Enzyme sB. The following applies: read-out: Km (sorbitol). The text has this:
(§1) To further improve the chimeras, Enzyme A/B21, Enzyme A/B22, Enzyme A/B25 and Enzyme A/B31 in the view point of the preferable codon usage, the C-terminal two thirds consisting of Enzyme B residues were replaced with the C-terminal two thirds consisting of Enzyme A residues. Enzyme A/B21, Enzyme A/B22, Enzyme A/B25 and Enzyme A/B31 genes were used for constructing new chimera genes of Enzyme sA21 (Enzyme A ammo acid residue Nos. 1-128, Enzyme B amino acid residue Nos. 129-180 and Enzyme A amino acid residue Nos. 180-556), Enzyme sA22 (Enzyme A amino acid residue Nos. 1-125, Enzyme B amino acid residue Nos. 126-180 and Enzyme A amino acid residue Nos. 180-556), Enzyme sA2 (Enzyme A amino acid residue Nos. 1-135, Enzyme B amino acid residue Nos. 136-180 and Enzyme A amino acid residue Nos. 180-556) and Enzyme sB (Enzyme A amino acid residue Nos. 1-95, Enzyme B amino acid residue Nos. 96-180 and Enzyme A amino acid residue Nos. 180-556) (FIG. 4). […]

For assay [3], the system named is Gluconobacter oxydans DSM No. 4025 AADH chimera Enzyme sA2 (Enzyme A residues 1-135, Enzyme B residues 136-180, Enzyme A residues 180-556; parents SEQ ID NO: …). Description: Kinetic properties of chimera Enzyme sA2. The following applies: read-out: Km (glucose).
Description: as §1

In assay [4] the target is T2, Gluconobacter oxydans DSM No. 4025 alcohol/aldehyde dehydrogenase Enzyme A′, SEQ ID NO: 6 (Ketogulonicigenium vulgare, UniProt F9Y5Q6).
T2 construct: 579 aa precursor with 23 aa signal peptide; PMS-DCIP assay with n-propanol
T2 sequence (F9Y5Q6 with tags, fused parts or gaps): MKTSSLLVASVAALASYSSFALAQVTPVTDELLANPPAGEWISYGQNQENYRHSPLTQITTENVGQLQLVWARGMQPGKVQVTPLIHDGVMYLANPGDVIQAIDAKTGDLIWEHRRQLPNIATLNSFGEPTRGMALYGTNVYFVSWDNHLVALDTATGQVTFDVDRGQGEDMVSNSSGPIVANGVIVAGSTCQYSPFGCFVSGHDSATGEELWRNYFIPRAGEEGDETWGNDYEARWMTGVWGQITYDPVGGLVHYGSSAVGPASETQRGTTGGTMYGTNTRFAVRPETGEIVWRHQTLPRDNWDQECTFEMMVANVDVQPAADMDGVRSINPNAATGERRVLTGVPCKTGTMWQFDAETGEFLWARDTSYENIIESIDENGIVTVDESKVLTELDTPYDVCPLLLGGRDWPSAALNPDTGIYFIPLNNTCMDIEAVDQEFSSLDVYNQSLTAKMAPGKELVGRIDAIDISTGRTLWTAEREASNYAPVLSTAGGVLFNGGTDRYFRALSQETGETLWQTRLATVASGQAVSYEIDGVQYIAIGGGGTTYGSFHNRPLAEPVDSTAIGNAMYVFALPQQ
The assay can be described thus: Effect of inhibitors on activity of Enzyme A′ (PMS-DCIP assay, substrate n-propanol). The following applies: 10 mM inhibitor, 30 minutes at 25° C., pH 7.5, relative to blank incubation. Here is the method:
(§2) The enzymatic activity of the AADHs herein can be determined by methods known in the art, such as by photometric analysis using a spectrophotometer. In accordance with the present invention, one unit of enzyme activity was defined as the amount of enzyme which catalyzed the reduction of 1 μmole of DCIP per minute. The extinction coefficient of DCIP at pH 8.0 was taken as 15 mM^−1. […] A second cuvette, i.e., a reference cuvette, contains all the above components except the substrate. The reference cuvette is used to standardize the background absorbance resulting from a substrate-independent (endogenous) reaction.
(§3) Enzyme activities of each clone (cell free extract, soluble fraction and membrane fraction) were measured by photometric analysis. The cells of each clone were inoculated in 5 ml of MB medium in a test tube and cultivated at 30° C. for 24 hours. The resulting broth was transferred into 200 ml of fresh MB medium in 500 ml flask and the flask was shaken on the rotary flask shaker at 30° C. for 24 hours. […] Substrate-dependent decreasing rate of absorbance of DCIP at 600 nm was measured at 25° C. by using a Kontron spectrophotometer UVIKON 810.
(§4) The enzyme (about 0.05 mg/ml) in 25 mM HEPES buffer, pH 7.5, containing 5% sucrose was incubated with metal or inhibitor for 30 minutes at 25° C. […] Remaining activity is expressed as relative activity against blank incubation.

Assay [5] concerns the target T3, Gluconobacter oxydans DSM No. 4025 alcohol/aldehyde dehydrogenase Enzyme B, SEQ ID NO: 8 (Ketogulonicigenium vulgare, UniProt F9Y8N6).
T3 construct: 579 aa precursor with 23 aa signal peptide; PMS-DCIP assay with D-sorbitol
T3 sequence (F9Y8N6 24-579): T1 sequence (F9Y8N6 24-579)
Description: Effect of inhibitors on activity of Enzyme B (PMS-DCIP assay, substrate D-sorbitol). The note with it: 10 mM inhibitor, 30 minutes at 25° C., pH 7.5, relative to blank incubation. As to the method:
as §2, §3, §4

This passage reports Ki, Km and remaining activity results from patent US6730503B1 (Roche Vitamins Inc., priority 1996, dated 2004).

SMILES strings stand for the structures.

For orientation: Ki means the equilibrium dissociation constant of an inhibitor or competing ligand from its target. A low value points to higher affinity. Molecule `OCC1(O)OC[C@H](O)[C@@H](O)[C@@H]1O` (stereo partly drawn) [sorbose, L-sorbose] displayed an inhibition constant (Ki) in assay [1] of 100 mM.
As usually defined, the Km is the concentration of substrate that gives half-maximal velocity. Regarding `OC[C@@H](O)[C@@H](O)[C@H](O)[C@@H](O)CO` [sorbitol, D-sorbitol], the Km in assay [2] was 61 mM.
In the case of `OC[C@H]1OC(O)[C@H](O)[C@@H](O)[C@@H]1O` (some centres unmarked) [glucose], the Km in assay [3] worked out at 20 mM.
The remaining activity is the share of the control activity or signal that is left under treatment. Turning to `O=C(O)CN(CCOCCOCCN(CC(=O)O)CC(=O)O)CC(=O)O` [EGTA], the remaining activity at 10000 µM stood at 16.7% in assay [4] and 74% in assay [5].
